Laboratory results reported in patent US20260256723A1, “THIOL-BASED COMPOUNDS AND COMPOSITIONS AND USES THEREOF” (CASE WESTERN RESERVE UNIVERSITY, priority 2022, published 2026).
Where “and” joins values, the source holds several entries; their conditions need not be identical. Equal values may be shown once. Entries after “also recorded” stand apart in the source; their conditions may differ. Read-outs that look alike come from different tables or passages of the source.

Columns and labels:
[1] = tested on: freely moving rats injected with morphine; assay: Ventilatory responses to morphine and subsequent injections of L-NACme; type: in vivo, rat
[2] = tested on: unanesthetized rats receiving continuous intravenous infusion of fentanyl; design: species or system Sprague Dawley rat; conditions: rat, in vivo
[3] = tested on: rats given bolus injections of fentanyl or morphine; conditions: rat, in vivo
[4] = tested on: unanesthetized rats receiving continuous intravenous infusion of fentanyl; design: species or system Sprague Dawley rat; conditions: rat, in vivo; remark: listed apart in the source
[5] = tested on: rats receiving infusion of fentanyl; design: species or system Sprague-Dawley rat; conditions: rat, in vivo
[6] = tested on: unanesthetized rats receiving continuous intravenous infusion of fentanyl; design: species or system Sprague Dawley rat; conditions: rat, in vivo; remark: listed apart in the source
[7] = tested on: unanesthetized rats receiving continuous intravenous infusion of fentanyl; design: species or system Sprague Dawley rat; conditions: rat, in vivo; remark: listed apart in the source
[8] = after morphine 10 mg/kg IV, two injections of L-NACme 500 μmol/kg IV
[9] = before morphine, group later given L-NACme
[10] = morphine 10 mg/kg IV, before L-NACme

Structure (SMILES): CCOC(=O)[C@H](CS)NC(C)=O [L-NACme, N-acetyl-L-cysteine ethyl ester]
- Frequency, Drug - entire 75 min, % change [1, 8]: +11 ± 2 %
- Minute Ventilation, Drug - entire 75 min, % change [1, 8]: −19 ± 4 %
- Tidal Volume, Drug - entire 75 min, % change [1, 8]: −22 ± 3 %
- Frequency, Pre values [1, 9]: 98 ± 4
- Minute Ventilation, Pre values [1, 9]: 259 ± 17
- Tidal Volume, Pre values [1, 9]: 2.61 ± 0.16
- Frequency, Morphine - first 15 min response (%) [1, 10]: −4.9 ± 2.8%
- Frequency, Morphine - peak (+) response (%) [1, 10]: +42 ± 6 %
- Frequency, Morphine peak (−) response (%) [1, 10]: −22 ± 4 %
- Minute Ventilation, Morphine - first 15 min response (%) [1, 10]: −35 ± 3 %
- Minute Ventilation, Morphine - peak (+) response (%) [1, 10]: +20 ± 6 %
- Minute Ventilation, Morphine peak (−) response (%) [1, 10]: −54 ± 4 %
- Tidal Volume, Morphine - first 15 min response (%) [1, 10]: −34 ± 3 %
- Tidal Volume, Morphine - peak (+) response (%) [1, 10]: −16 ± 6 %
- Tidal Volume, Morphine peak (−) response (%) [1, 10]: −40 ± 6 %

Structure (SMILES): CC(=O)N[C@@H](CS)C(=O)O [L-NAC, N-acetyl-L-cysteine]
- EEP, actual value [2]: 45.4 ms
- EF50, baseline [2]: 0.36 ± 0.03 mL/s
- EIP, actual value [2]: 7.9 ms
- Effect on Freq, TV and MV (words, FIG. 1) [2]: immediate and sustained increase in these parameters to levels approaching (Freq and MV) and actually reaching (TV) pre-infusion levels; also recorded: did not further boost Freq whereas it did boost TV and therefore MV
- Effect on NEBI (words, FIG. 11) [2]: noticeable decrease in NEBI
- Effect on PEF (words, FIG. 4) [2]: substantial and sustained increases in PEF
- Effect on PIF (words, FIG. 4) [2]: sustained partial recover of PIF
- Effect on Te (words, FIG. 2) [2]: prevented this increase in Te
- Effect on Ti/Te (words, FIG. 2) [2]: sustained elevation in Ti/Te compared to vehicle-injected rats
- Effect on expiratory drive (words, FIG. 5) [2]: immediate, substantial and sustained increases in expiratory dive
- End Expiratory Pause, baseline [2]: 44.3 ± 4.0
- ExpD TV/Te, actual value [2]: 5.5 mL/s
- Expiratory Drive (TV/Te), baseline [2]: 5.5 ± 0.3 mL/s
- Expiratory Time (Te), baseline [2]: 0.443 ± 0.022 s
- Freq, actual value [2]: 102 breaths/min
- Frequency of Breathing (Freq), baseline [2]: 102 ± 5 breaths/min
- InspD (TV/Ti), actual value [2]: 12.4 mL/s
- Inspiratory Drive (TV/Ti), baseline [2]: 12.4 ± 0.6 mL/s
- Inspiratory Time (Ti), baseline [2]: 0.200 ± 0.010 s
- Level of NEBI (words, FIG. 11) [2]: not noticeably different from those that received the second injection of vehicle
- MV, actual value [2]: 247 mL/min
- Minute Ventilation, baseline [2]: 247 ± 14 mL/min
- NEBI, actual value [2]: 2.6%
- PEF, actual value [2]: 11.2
- PIF/PEF, actual value [2]: 1.61
- PIF/PEF, baseline [2]: 1.63 ± 0.11
- Pause, (Te/RT) − 1, baseline [2]: 0.40 ± 0.08
- Pause, (Te/RT)-1, actual value [2]: 0.40
- Peak Expiratory Flow (PEF), baseline [2]: 11.2 ± 0.7 mL/s
- Peak Inspiratory Flow (PIF), baseline [2]: 17.6 ± 1.1 mL/s
- RT, actual value [2]: 0.32 s
- Relaxation Time (RT), baseline [2]: 0.32 ± 0.02 s
- TV, actual value [2]: 2.42 mL
- Te − RT, baseline [2]: 0.12 ± 0.02
- Te, actual value [2]: 0.44 s
- Te-RT, actual value [2]: 0.12
- Ti, actual value [2]: 0.20 s
- Ti/Te, actual value [2]: 0.46
- Ti/Te, baseline [2]: 0.46 ± 0.02
- Tidal Volume, baseline [2]: 2.42 ± 0.05 mL
- Total (cumulative) change in NEBI (words, FIG. 7) [2]: virtually eliminated NEBI
- Total (cumulative) change in PEF (words, FIG. 7) [2]: pronounced increase in PEF
- Total (cumulative) change in expiratory drive (words, FIG. 7) [2]: converted the decrease in expiratory drive (ExpD) to an increase
- EF50, total percent change ([2]; iv): +57.6 ± 11.3%
- EIP, actual value ([2]; iv): 20.2 ms and 19.7 ms
- EIP, arithmetic change ([2]; iv): +12 msec
- End Expiratory Pause, total percent change ([2]; iv): +9.1 ± 6.3%
- End Inspiratory Pause, total percent change ([2]; iv): +147.0 ± 12.9%
- ExpD TV/Te, actual value ([2]; iv): 4.6 mL/s and 6.9 mL/s and 8.1 mL/s
- Expiratory Drive (TV/Te), total percent change ([2]; iv): −14.6 ± 3.1%
- Expiratory Time (Te), total percent change ([2]; iv): −10.3 ± 3.5%
- Freq, actual value ([2]; iv): 78 breaths/min and 90 breaths/min and 89 breaths/min
- Frequency of Breathing (Freq), total percent change ([2]; iv): −21.6 ± 2.4%
- InspD (TV/Ti), actual value ([2]; iv): 4.8 mL/s and 6.6 mL/s and 7.9 mL/s
- Inspiratory Drive (TV/Ti), total percent change ([2]; iv): −56.3 ± 2.7%
- Inspiratory Time (Ti), total percent change ([2]; iv): +82.5 ± 14.1%
- MV, actual value ([2]; iv): 135 mL/min and 210 mL/min and 241 mL/min
- Minute Ventilation, total percent change ([2]; iv): −39.9 ± 2.7%
- NEBI, actual value ([2]; iv): 2.0% and 1.0% and 1.3%
- NEBI, arithmetic change ([2]; iv): −0.6% and −1.6% and −1.3%
- PEF, actual value ([2]; iv): 11.2 and 13.8 and 15.3
- PIF/PEF, actual value ([2]; iv): 0.82 and 0.84 and 0.93
- PIF/PEF, total percent change ([2]; iv): −42.1 ± 4.7%
- Pause, (Te/RT) − 1, total percent change ([2]; iv): +348.6 ± 67.4%
- Pause, (Te/RT)-1, actual value ([2]; iv): 1.32 and 0.94
- Peak Expiratory Flow (PEF), total percent change ([2]; iv): −2.2 ± 2.8%
- Peak Inspiratory Flow (PIF), total percent change ([2]; iv): −44.0 ± 3.7%
- RT, actual value ([2]; iv): 0.17 s and 0.18 s
- Relaxation Time (RT), total percent change ([2]; iv): −41.4 ± 4.6%
- TV, actual value ([2]; iv): 1.73 mL and 2.34 mL and 2.71 mL
- Te − RT, total percent change ([2]; iv): +129.9 ± 28.2%
- Te, actual value ([2]; iv): 0.38 s and 0.34 s
- Te-RT, actual value ([2]; iv): 0.21 and 0.17 and 0.16
- Ti, actual value ([2]; iv): 0.36 s and 0.35 s
- Ti/Te, actual value ([2]; iv): 0.96 and 1.06 and 1.05
- Ti/Te, total percent change ([2]; iv): +104.4 ± 11.6%
- Tidal Volume, total percent change ([2]; iv): −23.5 ± 2.5%
- Effect of bolus L-NAC on bolus opioid [3]: completely without effect
- A-a gradient [4]: 17.9 ± 0.7 mmHg
- Arterial blood pH [4]: 7.442 ± 0.008
- Beneficial effects on ABG chemistry and A-a gradient (words, FIG. 9) [4]: still evident 30 min after the second injection of L-NAC
- pCO2 [4]: 35.7 ± 0.03 mmHg
- pO2 [4]: 92.1 ± 0.07 mmHg
- sO2 [4]: 99.0 ± 0.4%
- A-a gradient ([4]; iv): 27.6 ± 0.8 mmHg and 23.1 ± 1.3 mmHg and 26.1 ± 1.5 mmHg
- Arterial blood pH ([4]; iv): 7.162 ± 0.026 and 7.392 ± 0.006 and 7.443 ± 0.013
- pCO2 ([4]; iv): 57.3 ± 1.5 mmHg and 36.2 ± 1.1 mmHg and 35.2 ± 0.4 mmHg
- pO2 ([4]; iv): 58.4 ± 1.9 mmHg and 86.3 ± 1.6 mmHg and 84.5 ± 1.4 mmHg
- sO2 ([4]; iv): 59.1 ± 1.8% and 93.6 ± 0.9% and 92.4 ± 1.2%
- Fecal output, number of pellets, total weight (words, FIG. 13C-D) [5]: normalized by L-NAC injections
- Urine and fecal parameters (words, FIG. 13) [5]: did not affect parameters in vehicle-infused rats
- Actual TFL values [6]: 11.9 ± 0.1 s and 11.5 ± 0.1 s
- Righting reflex, time to get back on all four paws [7]: 4.6 ± 1.5 s
